Experimental data as given in patent publication US20250092051A1, “NLRP3 MODULATORS AND USE THEREOF” (Bioentropy Inc., priority 2023, published 2025).

Legend:
NLRP3 [1] = biological target: T1, NLRP3 (Homo sapiens, UniProt Q96P20); assay: THP-1 pyroptosis assay (caspase-1 p20 in supernatant by Western blot); assay type: cell-based; conditions: PMA-differentiated THP-1, LPS 50 ng/ml 4 h, compound 30 min, nigericin 15 μM 45 min; caspase-1 p20 Western blot
T1 construct: host or cells: THP-1 cells, PMA-differentiated, LPS-primed, nigericin-stimulated
T1 sequence (Q96P20 whole entry): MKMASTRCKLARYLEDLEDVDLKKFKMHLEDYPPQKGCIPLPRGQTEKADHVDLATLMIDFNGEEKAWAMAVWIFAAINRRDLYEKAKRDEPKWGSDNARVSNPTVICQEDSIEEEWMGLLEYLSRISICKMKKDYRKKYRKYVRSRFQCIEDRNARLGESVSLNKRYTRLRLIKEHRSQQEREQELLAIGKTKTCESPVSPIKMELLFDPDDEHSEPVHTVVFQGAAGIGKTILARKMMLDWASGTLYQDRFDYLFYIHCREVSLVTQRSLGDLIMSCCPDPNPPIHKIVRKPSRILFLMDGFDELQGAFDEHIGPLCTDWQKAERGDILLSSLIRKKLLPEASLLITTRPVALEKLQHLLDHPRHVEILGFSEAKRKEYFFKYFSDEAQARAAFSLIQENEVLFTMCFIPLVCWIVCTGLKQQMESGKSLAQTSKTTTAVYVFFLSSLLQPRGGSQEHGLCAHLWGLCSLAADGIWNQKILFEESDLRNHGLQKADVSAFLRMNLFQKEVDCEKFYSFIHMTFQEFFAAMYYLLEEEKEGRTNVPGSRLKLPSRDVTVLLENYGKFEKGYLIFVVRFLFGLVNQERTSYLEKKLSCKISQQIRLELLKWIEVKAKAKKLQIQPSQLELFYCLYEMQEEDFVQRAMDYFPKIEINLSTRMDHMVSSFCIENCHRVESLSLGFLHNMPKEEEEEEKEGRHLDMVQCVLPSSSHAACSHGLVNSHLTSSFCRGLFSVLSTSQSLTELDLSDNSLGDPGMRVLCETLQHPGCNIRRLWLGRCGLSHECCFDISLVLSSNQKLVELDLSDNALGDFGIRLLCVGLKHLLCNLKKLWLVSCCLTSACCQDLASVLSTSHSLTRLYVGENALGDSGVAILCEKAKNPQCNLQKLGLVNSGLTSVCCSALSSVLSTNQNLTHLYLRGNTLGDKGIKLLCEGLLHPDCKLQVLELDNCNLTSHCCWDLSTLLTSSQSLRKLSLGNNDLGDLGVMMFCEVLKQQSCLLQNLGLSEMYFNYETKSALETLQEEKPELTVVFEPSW
Procedure: (§1) THP-1 cell lines (procell, #CL-0233) were cultured in RPMI-1640 medium (Gibco, #C11875500BT) supplemented with 10% FBS, 100 U/ml penicillin, 100 µg/ml streptomycin and 0.05 mM β-mercaptoethanol (BME). THP-1 cells were seeded at 5×10^5/ml in 12 well plates and were differentiated into macrophages by incubation with 5 ng/ml PMA (Sigma, #P8139-1MG) for 48 h. Cells were washed with PBS and then were primed with 50 ng/ml LPS (InvivoGen, #tlrl-b5lps) for 4 h. Medium were removed and replaced with serum free medium (SFM) containing compound (2.5-40 nM) or MCC950 (5-25 nM) for 30 min. Cells were then stimulated with 15 μM nigericin (Invivogen, #tlrl-nig) for 45 min.
The protein of supernatants was concentrated using StrataClean™ resin (Agilent, #400714) according to the manufacturer's instructions. The protein samples were resolved on 4-20% SDS-PAGE gels and transferred onto 0.45 PVDF membrane (Immobilon-P #IPVH00010) using a wet transfer system. Membranes were blocked in 5% (w/v) dried milk in PBST for 1 h at room temperature. Membranes were incubated with primary antibody (Adipogen, #AG-20B-0048B-C100) diluted in Primary Antibody Dilution Buffer (Beyotime, #P0023A-100 ml) according to the manufacturer's instructions, followed by incubation with the IgG(H+L) (HRP-labeled Goat Anti-Mouse IgG(H+L) (Beyotime, #A0216) diluted in 1% (w/v) dried milk in PBST for 1 h. The protein expression was visualized using Super ECL Detection Reagent (YEASEN,
FIG. 1. Results of Western blots for THP-1 cell-based pyroptosis assay using the cleavage of caspase-1 into p20 as reporting indication of NLRP3 inhibition. […] Molecule N-027 (Compound #51) and N-027B (Compound #53) inhibits NLRP3 inflammasome activation in macrophages, N-027 IC50 (caspase-1)<5 nM; N-027B IC50 (caspase-1) 1 nM. THP-1 cells were primed for 4 h with LPS (50 ng/ml), and then LPS-primed THP-1 cells were incubated with N-027 or N-027B for 30 min and then stimulated with nigericin (15 μM) for 45 min. Caspase-1 (p20) in supernatants were measured by Western blots.

NLRP3 [2] = biological target: T1, NLRP3; assay: IL-1β assay (ELISA of THP-1 culture supernatant); assay type: cell-based; conditions: PMA-differentiated THP-1, LPS 50 ng/ml 4 h, compound 30 min, nigericin 15 μM 45 min; Human IL-1β ELISA
Procedure: as §1
The culture supernatant of THP-1 was removed and analyzed using Human IL-1β ELISA Kit according to the manufacturer's instructions (Beyotime, #PI305). The IL-1β concentration was measured at 450 nm wavelength of absorbance and calculated.

Row | Compound | IC50 (NLRP3 [1]) | IC50 (NLRP3 [2])
1 | Cc1cc(Cl)cc(C)c1-n1nc2nc(N3CCCC3)[nH]c(=O)c2n1 [Compound 63, 2-(4-chloro-2,6-dimethylphenyl)-5-(pyrrolidin-1-yl)-2,6-dihydro-7H-[1,2,3]triazolo[4,5-d]pyrimidin-7-one] | 0.01 µM | –
2 | CCN(CC)c1nc2nn(-c3c(C)cc(Br)cc3C)nc2c(=O)[nH]1 [Compound 95, 2-(4-bromo-2,6-dimethylphenyl)-5-(diethylamino)-2,6-dihydro-7H-[1,2,3]triazolo[4,5-d]pyrimidin-7-one] | < 0.0062 µM | < 0.0062 µM
3 | Cc1cc(C2CC2)cc(C)c1-n1nc2nc(N3CCCC3)[nH]c(=S)c2n1 [Compound 54, 2-(4-cyclopropyl-2,6-dimethylphenyl)-5-(pyrrolidin-1-yl)-2,6-dihydro-7H-[1,2,3]triazolo[4,5-d]pyrimidine-7-thione] | < 0.1 µM | < 0.1 µM
4 | O=c1[nH]c(N2CCCC2)nc2nn(-c3c(Cl)cc(Br)cc3Cl)nc12 [Compound 91, 2-(4-bromo-2,6-dichlorophenyl)-5-(pyrrolidin-1-yl)-2,6-dihydro-7H-[1,2,3]triazolo[4,5-d]pyrimidin-7-one] | 0.0075 µM | < 0.015 µM
5 | Cc1cc(Br)cc(C)c1-n1nc2nc(N3CCOCC3)[nH]c(=O)c2n1 [Compound 1, 2-(4-bromo-2,6-dimethylphenyl)-5-morpholino-2,6-dihydro-7H-[1,2,3]triazolo[4,5-d]pyrimidin-7-one] | < 0.0025 µM | < 0.02 µM
6 | Cc1cc(Br)cc(C)c1-n1nc2nc(N3CCCC3)[nH]c(=S)c2n1 [Compound 52, 2-(4-bromo-2,6-dimethylphenyl)-5-(pyrrolidin-1-yl)-2,6-dihydro-7H-[1,2,3]triazolo[4,5-d]pyrimidine-7-thione] | < 0.05 µM | < 0.5 µM
7 | O=c1[nH]c(N2CCCC2)nc2nn(-c3ccc(Br)cc3Cl)nc12 [Compound 97, 2-(4-bromo-2-chlorophenyl)-5-(pyrrolidin-1-yl)-2,6-dihydro-7H-[1,2,3]triazolo[4,5-d]pyrimidin-7-one] | 0.005 µM | < 0.02 µM
8 | Cc1cc(C2CC2)cc(C)c1-n1nc2nc(N3CCCC3)[nH]c(=O)c2n1 [Compound 53, 2-(4-cyclopropyl-2,6-dimethylphenyl)-5-(pyrrolidin-1-yl)-2,6-dihydro-7H-[1,2,3]triazolo[4,5-d]pyrimidin-7-one] | ≤ 0.001 µM | < 0.005 µM
9 | Cc1cc(C2CC2)cc(C)c1-n1nc2nc(N3CCOCC3)[nH]c(=O)c2n1 [Compound 3, 2-(4-cyclopropyl-2,6-dimethylphenyl)-5-morpholino-2,6-dihydro-7H-[1,2,3]triazolo[4,5-d]pyrimidin-7-one] | < 0.005 µM | < 0.015 µM
10 | O=c1[nH]c(N2CCCC2)nc2nn(-c3ccc(C4CC4)cc3C(F)(F)F)nc12 [Compound 77, 2-(4-cyclopropyl-2-(trifluoromethyl)phenyl)-5-(pyrrolidin-1-yl)-2,6-dihydro-7H-[1,2,3]triazolo[4,5-d]pyrimidin-7-one] | < 0.01 µM | < 0.01 µM
11 | O=c1[nH]c(N2CCCC2)nc2nn(-c3c(F)cc(Br)cc3Cl)nc12 [Compound 98, 2-(4-bromo-2-chloro-6-fluorophenyl)-5-(pyrrolidin-1-yl)-2,6-dihydro-7H-[1,2,3]triazolo[4,5-d]pyrimidin-7-one] | 0.0075 µM | < 0.015 µM
12 | O=c1[nH]c(N2CCCC2)nc2nn(-c3ccc(Br)cc3C(F)(F)F)nc12 [Compound 75, 2-(4-bromo-2-(trifluoromethyl)phenyl)-5-(pyrrolidin-1-yl)-2,6-dihydro-7H-[1,2,3]triazolo[4,5-d]pyrimidin-7-one] | 0.0025 µM | < 0.01 µM
13 | Cc1cc(Br)cc(C)c1-n1nc2nc(N3CCOCC3)[nH]c(=S)c2n1 [Compound 2, 2-(4-bromo-2,6-dimethylphenyl)-5-morpholino-2,6-dihydro-7H-[1,2,3]triazolo[4,5-d]pyrimidine-7-thione] | < 1.6 µM | < 1.6 µM
14 | Cc1cc(Br)cc(C)c1-n1nc2nc(N3CCCC3)[nH]c(=O)c2n1 [Compound 51, 2-(4-bromo-2,6-dimethylphenyl)-5-(pyrrolidin-1-yl)-2,6-dihydro-7H-[1,2,3]triazolo[4,5-d]pyrimidin-7-one] | < 0.005 µM | < 0.005 µM
15 | Cc1cc(C2CC2)cc(C)c1-n1nc2nc(N3CCOCC3)[nH]c(=S)c2n1 [Compound 4, 2-(4-cyclopropyl-2,6-dimethylphenyl)-5-morpholino-2,6-dihydro-7H-[1,2,3]triazolo[4,5-d]pyrimidine-7-thione] | > 1 µM | > 1 µM
16 | O=c1[nH]c(N2CCCC2)nc2nn(-c3c(F)cc(Br)cc3F)nc12 [Compound 99, 2-(4-bromo-2,6-difluorophenyl)-5-(pyrrolidin-1-yl)-2,6-dihydro-7H-[1,2,3]triazolo[4,5-d]pyrimidin-7-one] | < 0.01 µM | < 0.02 µM

The remaining lines, values ahead:

Row | IC50 (NLRP3 [1]) | IC50 (NLRP3 [2]) | Compound
17 | < 0.1 µM | < 0.2 µM | CCN1CCN(c2nc3nn(-c4ccc(C5CC5)cc4C(F)(F)F)nc3c(=O)[nH]2)CC1 [Compound 100, 2-(4-cyclopropyl-2-(trifluoromethyl)phenyl)-5-(4-ethylpiperazin-1-yl)-2,6-dihydro-7H-[1,2,3]triazolo[4,5-d]pyrimidin-7-one]
18 | – | > 10 µM | COc1nc(N2CCOCC2)nc2nn(-c3c(C)cc(C4CC4)cc3C)nc12 [Compound 109, 4-[2-(4-cyclopropyl-2,6-dimethyl-phenyl)-7-methoxy-triazolo[4,5-d]pyrimidin-5-yl]morpholine]
19 | – | < 0.033 µM | Cc1cc(C2CC2)cc(C)c1-n1nc2nc(N3CCOC[C@H]3C)[nH]c(=O)c2n1 [Compound 107, (R)-2-(4-cyclopropyl-2,6-dimethylphenyl)-5-(3-methylmorpholino)-2H-[1,2,3]triazolo[4,5-d]pyrimidin-7(6H)-one]
20 | – | < 0.5 µM | Cc1cc(C2CC2)cc(C)c1-n1nc2nc(N3CCOCC3)n(C)c(=O)c2n1 [Compound 108, 2-(4-cyclopropyl-2,6-dimethyl-phenyl)-6-methyl-5-morpholino-triazolo[4,5-d]pyrimidin-7-one]
21 | < 0.01 µM | < 0.01 µM | O=c1[nH]c(N2CCOCC2)nc2nn(-c3c(F)cc(C4CC4)cc3Cl)nc12 [Compound 103, 2-(2-chloro-4-cyclopropyl-6-fluorophenyl)-5-morpholino-2,6-dihydro-7H-[1,2,3]triazolo[4,5-d]pyrimidin-7-one]
22 | < 0.01 µM | < 0.1 µM | Cc1cc(C2CC2)cc(C)c1-n1nc2nc(N(C)CCN(C)C)[nH]c(=O)c2n1 [Compound 101, 2-(4-cyclopropyl-2,6-dimethylphenyl)-5-((2-(dimethylamino)ethyl)(methyl)amino)-2,6-dihydro-7H-[1,2,3]triazolo[4,5-d]pyrimidin-7-one]
23 | > 0.1 µM | > 0.1 µM | CCN1CCN(c2nc3nn(-c4c(C)cc(C5CC5)cc4F)nc3c(=O)[nH]2)CC1 [Compound 106, 2-(4-cyclopropyl-2-fluoro-6-methylphenyl)-5-(4-ethylpiperazin-1-yl)-2,6-dihydro-7H-[1,2,3]triazolo[4,5-d]pyrimidin-7-one]
24 | < 0.006 µM | < 0.01 µM | Cc1cc(C2CC2)cc(F)c1-n1nc2nc(N3CCOCC3)[nH]c(=O)c2n1 [Compound 104, 2-(4-cyclopropyl-2-fluoro-6-methylphenyl)-5-morpholino-2,6-dihydro-7H-[1,2,3]triazolo[4,5-d]pyrimidin-7-one]
25 | < 0.04 µM | > 0.1 µM | CCN1CCN(c2nc3nn(-c4c(C)cc(C5CC5)cc4C)nc3c(=O)[nH]2)CC1 [Compound 102, 2-(4-cyclopropyl-2,6-dimethylphenyl)-5-(4-ethylpiperazin-1-yl)-2,6-dihydro-7H-[1,2,3]triazolo[4,5-d]pyrimidin-7-one]
26 | < 0.006 µM | < 0.01 µM | O=c1[nH]c(N2CCOCC2)nc2nn(-c3c(F)cc(C4CC4)cc3C(F)(F)F)nc12 [Compound 105, 2-(4-cyclopropyl-2-fluoro-6-(trifluoromethyl)phenyl)-5-morpholino-2,6-dihydro-7H-[1,2,3]triazolo[4,5-d]pyrimidin-7-one]
